# PubChem BioAssay (NCI)
#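 Protocol summary: plate cells (96-well), add compound at 5 concentrations, incubate 48 h, interpolate endpoints linearly. GI50 = concentration required for 50% inhibition of growth. TGI marks complete inhibition of growth.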
# Key:
# Assay in all cases: growth of human tumour cells (NCI), 48 h
# [1] = system: LXFL 529 NSCLC
# [2] = system: DLD-1 colon
# [3] = system: KM20L2 colon
# [4] = system: LOX IMVI melanoma
# [5] = system: HT29 colon
# [6] = system: XF 498 CNS
# [7] = system: M19-MEL melanoma
# [8] = system: DMS 273 small cell lung
# [9] = system: DMS 114 small cell lung
# [10] = system: HOP-18 NSCLC
# [11] = system: SNB-78 CNS
SMILES,TGI [4] [µM],TGI [5] [µM],further results
CC1OC(OP(=O)(OCc2ccccc2)OCc2ccccc2)C(OC(=O)c2ccccc2)C(OC(=O)c2ccccc2)C1I (stereo not drawn),> 100,> 100,TGI [1]: > 100 µM; TGI [2]: > 100 µM; TGI [3]: > 100 µM; TGI [6]: > 100 µM; TGI [7]: > 100 µM; TGI [8]: > 100 µM
CCCCCCc1cc(C=O)sc1-c1ccc(-c2sc(-c3ccc(-c4ccc(-c5cc(CCCCCC)c(-c6ccc(-c7sc(C=O)cc7CCCCCC)s6)s5)s4)s3)cc2CCCCCC)s1,> 100,> 100,–
CCOC(=O)Nc1ccc(S(=O)(=O)Nc2ccc(Br)cc2)cc1,> 100,> 100,–
CCC1OC2C(CC=C(C)C)=C3OC(C)(O)C(C)(CC)C(O)C3=C3OC(=O)C=C1C32 (stereo not drawn),35.9,–,–
NC12c3c4cccc3Oc3cccc(c31)Oc1cccc(c12)O4,–,> 50,–
COc1ccc2c(c1)CCC(CN1CCN(CCOC(c3ccc(F)cc3)c3ccc(F)cc3)CC1)=C2,30.3,32.4,–
COc1ccc2c(c1)CC[C@@H]1C2CC[C@]2(C)OC(=O)CCC12 (stereo partly drawn),19.4,59.2,–
C[C@H](NC(=O)OC1C2C=CC(O)C1CC2)c1ccccc1 (stereo partly drawn),> 100,–,TGI [9]: > 100 µM; TGI [1]: > 100 µM; TGI [2]: > 100 µM; TGI [10]: > 100 µM; TGI [3]: > 100 µM; TGI [11]: > 100 µM; TGI [6]: > 100 µM; TGI [8]: > 100 µM
c1ccc(/C(=N/Nc2cnccn2)c2ncccn2)cc1,–,> 100,–
CCc1nnc2sc(-c3ccc(-c4ccc(Cl)cc4Cl)o3)nn12,> 100,> 100,–
CCOc1ccc(N=NC2C(=O)N(C(=O)CC(=O)Nc3ccc(Cl)cc3)N=C2C)cc1 (stereo not drawn),> 100,> 100,–
Nc1nc(Cl)cc(NCC2(CO)CC(CCCCc3ccccc3)C2)n1 (stereo not drawn),> 100,35.3,–
COc1ccc(NS(=O)C2CCCCC2)cc1 (stereo not drawn),> 100,> 100,–
CC(C)=NN/C(=N\S(=O)(=O)c1cc(Cl)c(Oc2ccc([N+](=O)[O-])cc2Cl)c(Cl)c1)Nc1ccc(Cl)cc1,> 100,> 100,–
Fc1ccc(C(=NCc2ccccc2)N2CCOCC2)cc1,> 100,> 100,–
CCN(CC)P1(=S)Oc2ccc3ccccc3c2-c2c(ccc3ccccc23)O1,> 100,> 100,–
O=Cc1cc(O)c(O)c(O)c1-c1c(C=O)cc(O)c(O)c1O,> 100,> 100,TGI [9]: > 100 µM; TGI [1]: > 100 µM; TGI [2]: > 100 µM; TGI [10]: > 100 µM; TGI [3]: > 100 µM; TGI [11]: > 100 µM; TGI [7]: > 100 µM; TGI [8]: > 100 µM
Cc1ccc(Nc2ncnc3sc(SCc4ccccc4)nc23)cc1,> 100,> 100,–
NS(=O)(=O)c1ccc(CNC(=S)NC(=O)Nc2ccc(Cl)c(Cl)c2)cc1,27.9,61.1,–

SMILES,TGI [4] [µM],TGI [5] [µM],further results
Cc1c(Cl)cccc1NC(=O)C(=O)C1C(=O)NC(=O)NC1=O,> 100,> 100,TGI [1]: > 100 µM; TGI [2]: > 100 µM; TGI [10]: > 100 µM; TGI [3]: > 100 µM; TGI [11]: > 100 µM; TGI [6]: > 100 µM; TGI [7]: > 100 µM; TGI [8]: > 100 µM
CC(=O)c1ccc2c(c1)CC1(C2)Cc2cc3c(cc2C1)C(=O)CC3 (stereo not drawn),28.8,6.32,–
CCOC(=O)/C(O)=C(\C=N\C(=S)Nc1ccc(Cl)c(Cl)c1)C(=O)OCC,> 100,> 100,–
COc1ccccc1NC(=S)N/N=C(/c1ccccc1)c1ccccn1,15.7,21,–
C(=N\NC1=NCCCN1)/c1ccc(-c2cn3cc(/C=N/NC4=NCCCN4)ccc3n2)cc1,> 100,> 71.7,–
CC(C)(C)[Si](C)(C)OCC1OC(n2ccc(=O)[nH]c2=O)C(O[Si](C)(C)C(C)(C)C)/C1=N/O (stereo not drawn),10.5,9.82,–
Brc1ccc(-c2ccc(-c3ccc(Br)s3)s2)s1,> 100,> 100,–
CC(C)(C)c1cc(C2COC(=O)COCCOCC(=O)OCCOCCO2)cc(C(C)(C)C)c1O (stereo not drawn),> 31.6,> 100,–
CCOC(=O)c1cc(-c2ccc(OC)c(OC)c2)cn1C,> 10,> 10,–
CC1OC(OC2C(CO)OC(O[C@H]3CC[C@@]4(C)C(=CC[C@H]5[C@@H]6C[C@@H]7O[C@](O)(CC[C@@H](C)COC8OC(CO)C(O)C(O)C8O)[C@@H](C)[C@@H]7[C@@]6(C)CC[C@@H]54)C3)C(OC3OC(C)C(O)C(O)C3O)C2O)C(O)C(O)C1O (stereo partly drawn),3.17,–,–
COC(=O)c1ccc(/C=C/C2=CC(=O)C=CC2=O)cc1,23.2,48.9,–
COc1ccc(N=NN2CCCC2)cc1,37.2,> 100,–
OC1(c2ccc(Cl)cc2)c2ccccc2C2=Nc3ccccc3CN21 (stereo not drawn),> 100,33.8,–
C#CCNC(Cc1ccccc1)C(=O)O (stereo not drawn),> 100,> 100,–
CCOC(=O)c1c(OCC)[nH]c(=O)c(C(c2ccc(F)cc2)c2c(O)c(C(=O)OCC)c(OCC)[nH]c2=O)c1O,33.1,31.7,–
N#Cc1nn(-c2ccc(Cl)cc2)c(N)c2c(=N)n3nc(-c4ccccc4)cc3nc12,> 37.9,> 32.8,TGI [1]: > 54.4 µM; TGI [2]: > 64.2 µM; TGI [3]: > 100 µM; GI50 [11]: > 100 µM; TGI [11]: > 100 µM; TGI [6]: > 100 µM; TGI [8]: > 100 µM
C=C1C(=O)O[C@H]2C1C[C@@H](O)[C@@]1(C)OC1CC[C@@]1(C)O[C@H]21 (stereo partly drawn),27.5,98.9,–
N#CC(C(=O)c1ccccc1F)c1nc2cc(C(F)(F)F)ccc2s1 (stereo not drawn),36.7,53.2,–
COC(=O)c1c(C)nc(C)c(N=O)c1-c1ccccc1C(F)(F)F,30.8,29.1,–
